Source: US11672775B2, “Treprostinil prodrugs” (United Therapeutics Corporation, priority 2016, dated 2023)

Columns and labels:
Assay in all cases: cAMP assay (TR-FRET or HTRF kit, forskolin), Examples 5 and 6
Type in all cases: cell-based
DP1 receptor = molecular target: T1, DP1 receptor (Homo sapiens, UniProt Q13258); conditions: Table 3 (Example 5); read-out: EC50, DP receptor
T1 construct: expressed in transfected cells
T1 sequence (Q13258 1-359): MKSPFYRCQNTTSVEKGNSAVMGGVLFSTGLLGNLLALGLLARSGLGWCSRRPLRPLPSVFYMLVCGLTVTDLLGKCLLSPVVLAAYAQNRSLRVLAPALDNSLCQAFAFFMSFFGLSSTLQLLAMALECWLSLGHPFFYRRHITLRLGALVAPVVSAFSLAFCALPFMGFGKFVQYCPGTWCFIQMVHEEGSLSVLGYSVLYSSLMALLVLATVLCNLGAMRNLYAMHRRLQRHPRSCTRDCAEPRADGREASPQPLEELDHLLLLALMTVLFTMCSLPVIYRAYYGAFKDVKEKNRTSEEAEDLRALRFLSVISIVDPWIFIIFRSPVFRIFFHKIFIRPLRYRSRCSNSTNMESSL
Experimental: (§1) [table] Prodrug XV (for structure see FIG. 10) as well as treprostinil were tested for 3 G-protein-coupled receptors (GPCRs), namely DP1, EP2, and IP, using cyclic adenosine monophosphate (cAMP) assay. Cyclic AMP assay kits: Multiscreen™ TR-FRET cAMP 1.0 No Wash Assay Kit (Multispan, Inc., Cat #MSCM01-25) and HTRF cAMP HiRange Kit (CisBio, Cat #62AM6PEC). Instruments: FlexStation III (Molecular Devices). Cyclic AMP (cAMP) Assay: cAMP assays were performed according to the manufacturer's protocol using Multiscreen™ TR-FRET cAMP 1.0 No Wash Assay Kit or HTRF cAMP HiRange Kit. […] The reaction was terminated by sequentially adding sequentially adding trFluor™ Eu-labeled cAMP and trFluor™ 650-labeled anti-cAMP antibody or D2-labeled cAMP and cryptate-labeled anti-cAMP antibody in lysis buffer. The plate was then incubated at room temperature for 60 minutes before reading fluorescent emissions at 620 nm and 665 or 668 nm with excitation at 314 nm on FlexStation III (Molecular Devices). Cyclic AMP (cAMP) assays: Cyclic AMP assay results are shown as “Ratio 665/620×10,000” (ratio of fluorescence at 665 nm and 620 nm×10,000) or “Ratio 668/620×10,000” (ratio of fluorescence at 668 nm and 620 nm×10,000). Data in graphs were represented in Mean±SD. Dose-dependent responses were fitted with sigmoidal dose-response curves allowing variable slopes using GraphPad Prism versions 4, 5 or 6 (Graphpad Prism). Treprostinil Prodrug XIV (for structure see FIG. 10) as well as treprostinil were tested for 3 G-protein-coupled receptors (GPCRs), namely DP1, EP2, and IP, using cyclin adenosine monophosphate (cAMP) assay. Cyclic AMP assay kits: Multiscreen™ TR-FRET cAMP 1.0 No Wash Assay Kit (Multispan, Inc., Cat #MSCM01-25) and HTRF cAMP HiRange Kit (CisBio, Cat #62AM6PEC). Cyclic AMP (cAMP) Assay: cAMP assays were performed according to the manufacturer's protocol using Multiscreen™ TR-FRET cAMP 1.0 No Wash Assay Kit or HTRF cAMP HiRange Kit. […] The reaction was terminated by sequentially adding sequentially adding trFluor™ Eu-labeled cAMP and trFluor™ 650-labeled anti-cAMP antibody or D2-labeled cAMP and cryptate-labeled anti-cAMP antibody in lysis buffer. The plate was then incubated at room temperature for 60 minutes before reading fluorescent emissions at 620 nm and 665 or 668 nm with excitation at 314 nm on FlexStation III (Molecular Devices). Cyclic AMP (cAMP) assays: Cyclic AMP assay results are shown as “Ratio 665/620×10,000” (ratio of fluorescence at 665 nm and 620 nm×10,000) or “Ratio 668/620×10,000” (ratio of fluorescence at 668 nm and 620 nm×10,000). Data in graphs were represented in Mean±SD. Dose-dependent responses were fitted with sigmoidal dose-response curves allowing variable slopes using GraphPad Prism versions 4, 5 or 6 (Graphpad Prism).

EP2 receptor = molecular target: T2, EP2 receptor (Homo sapiens, UniProt P43116); conditions: Table 3 (Example 5); read-out: EC50, EP receptor
T2 construct: expressed in transfected cells
T2 sequence (P43116 whole entry): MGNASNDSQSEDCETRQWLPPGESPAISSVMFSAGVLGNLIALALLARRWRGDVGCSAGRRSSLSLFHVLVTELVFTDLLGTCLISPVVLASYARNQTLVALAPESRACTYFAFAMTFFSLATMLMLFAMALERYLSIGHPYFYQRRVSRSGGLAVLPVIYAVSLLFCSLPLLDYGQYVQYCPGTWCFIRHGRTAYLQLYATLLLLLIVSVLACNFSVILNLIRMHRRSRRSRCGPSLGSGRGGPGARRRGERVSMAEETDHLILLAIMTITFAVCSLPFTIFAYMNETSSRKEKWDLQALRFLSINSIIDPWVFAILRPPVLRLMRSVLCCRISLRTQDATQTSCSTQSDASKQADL
Experimental: as §1

IP1 receptor = molecular target: T3, IP1 receptor (Homo sapiens, UniProt P43119); conditions: Table 3 (Example 5); read-out: EC50, IP receptor
T3 construct: expressed in transfected cells
T3 sequence (P43119 whole entry): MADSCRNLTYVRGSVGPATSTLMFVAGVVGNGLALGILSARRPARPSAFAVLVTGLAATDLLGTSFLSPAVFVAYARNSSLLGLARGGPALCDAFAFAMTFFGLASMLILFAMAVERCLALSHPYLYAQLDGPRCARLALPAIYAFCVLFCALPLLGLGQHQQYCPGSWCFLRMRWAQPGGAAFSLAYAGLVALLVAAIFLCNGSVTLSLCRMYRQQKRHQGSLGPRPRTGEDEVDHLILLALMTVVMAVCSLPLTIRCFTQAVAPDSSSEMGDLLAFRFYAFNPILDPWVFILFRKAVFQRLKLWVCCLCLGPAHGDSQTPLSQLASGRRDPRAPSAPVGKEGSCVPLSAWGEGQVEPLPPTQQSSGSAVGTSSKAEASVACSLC
Experimental: as §1

An EC50 (DP1 receptor) of 0.078 nM, an EC50 (EP2 receptor) of 0.537 nM and an EC50 (IP1 receptor) of 0.0779 nM were found for `CCCCC[C@H](O)CC[C@@H]1[C@H]2Cc3cccc(OCC(=O)O)c3C[C@H]2C[C@H]1O` [Treprostinil] in this work.
